tested on: Plasmodium falciparum; test: GSK_TCMDC: Inhibition of Plasmodium falciparum 3D7 in whole erythrocytes, using parasite LDH activity as an index of growth.; assay type: functional, organism-based; settings: Plasmodium falciparum, 3D7

Point of comparison: CCCNCc1ccc(-c2ccc(CN(CCOC)C(=O)c3ccccc3)cc2)nc1, XC50 876 nM. Against it:
- O=C(Nc1ccnc2ccccc12)NC1CCN(CCc2ccccc2)CC1 — 2.4-fold lower, 364 nM
- COc1ccccc1CNCC(O)c1cc(C(F)(F)F)ccc1C(F)(F)F (stereo not given) — within 1.5-fold, 944 nM
- Cc1cccc(C(=O)NC(NC(=S)Nc2cc(Cl)ccc2Cl)C(Cl)(Cl)Cl)c1 (stereo not given) — within 1.5-fold, 1270 nM
- O=C(Nc1ccc(F)cc1)c1nc2ccccc2nc1Cl — within 1.5-fold, 1230 nM
- O=C(NCc1ccccc1)Nc1cccc(-c2cccc(-c3nc4cc(C(F)(F)F)ccc4[nH]3)c2)c1 — 3.3-fold lower, 264 nM
- O=C(Nc1ccc(Cl)cc1)c1ccc(CN2CCCN(Cc3cccc(Cl)c3)CC2)cc1 — within 1.5-fold, 826 nM
- Cc1ccc(NC(=O)c2cc(Br)cc(N3CCC(N(C)C)CC3)c2)cc1F — within 1.5-fold, 840 nM
- COc1cc(CNCCCNc2nc(=O)c3sccc3[nH]2)c2[nH]cc(Cl)c2c1 — within 1.5-fold, 888 nM
- COc1cccc(CCNc2nc(NCc3ccccc3)c3cc(OC)c(OC)cc3n2)c1 — 2.7-fold lower, 321 nM
- O=C(Nc1ccc(Cl)cc1)Nc1cccc(-c2cc(CNCCc3ccccc3)oc2-c2ccncc2)c1 — 3.1-fold lower, 279 nM
- COC(=O)c1cccc(CNCc2cccc(-c3csc(-c4nc5ccccc5[nH]4)c3)c2)c1 — within 1.5-fold, 693 nM
- Cc1cc(=NN=Cc2ccc(F)cc2)c2cccc(C)c2[nH]1 — within 1.5-fold, 779 nM
- CCCCC(CC)C(=O)C(NC(=O)[C@H](CSC(c1ccccc1)(c1ccccc1)c1ccccc1)NC(=O)OC(C)(C)C)C(=O)OC (stereo not given in full) — within 1.5-fold, 1020 nM
- O=C(N[C@@H](CC1CCCCC1)C(=O)NCc1cccc(C(F)(F)F)c1)c1ccc(O)c(-c2ccc(Cl)c(Cl)c2)c1 — 3.9-fold lower, 224 nM
- N=c1[nH]c2cccc3ccc4cccc1c4c32 — within 1.5-fold, 918 nM
- CCCNC(=O)C1Cc2cc(OC)c(OC)cc2C2(N1)C(=O)N(Cc1cccc(OC)c1)c1ccccc12 (stereo not given) — within 1.5-fold, 863 nM
- CC1(C)NC(N)=NC(=N)N1OCc1cc(Cl)c(Cl)cc1CON1C(=N)N=C(N)NC1(C)C — 60-fold lower, 14.6 nM
- N=C(N)c1cccc(OCCCOc2cccc(NC(=O)Nc3ccc([N+](=O)[O-])cc3)c2)c1 — within 1.5-fold, 862 nM
- Fc1ccc(Nc2ccnc3cc(I)ccc23)c(Cl)c1 — within 1.5-fold, 1080 nM
- COc1ccc2nccc([C@@H](O)CN3CCC(NCc4ccc5c(c4)nnn5C(C)C)CC3)c2c1 — within 1.5-fold, 642 nM
- Cc1cc(Nc2ccnc(-c3ccc(Cl)cc3)n2)ccn1 — within 1.5-fold, 1040 nM
- CCCCCC(=O)N1CCOC(CCN2CCc3c(c4ccccc4n3C)C2)(c2ccc(Cl)c(Cl)c2)C1 (stereo not given) — within 1.5-fold, 982 nM
- Oc1cccc(-c2nc(-c3cccc(I)c3)c(-c3ccc(-c4nc(-c5cccc(O)c5)[nH]c4-c4cccc(I)c4)cc3)[nH]2)c1 — within 1.5-fold, 925 nM
- Cc1cc(NS(=O)(=O)c2cccc(C(C)N3CCC(N4CCCC4)CC3)c2)ccc1C(C)C (stereo not given) — within 1.5-fold, 824 nM
- CCCOc1cc(NC(=O)Nc2ccnc3ccccc23)cc(OCCC)c1 — within 1.5-fold, 732 nM
- COc1ccc2nccc(N/N=C/c3ccc([N+](=O)[O-])cc3)c2c1 — within 1.5-fold, 712 nM
- Nc1cc(/C=C/c2ccc([N+](=O)[O-])o2)nc2ccccc12 — 2.4-fold lower, 367 nM
- O=C(NCCCCN1CCN(CC=Cc2ccccc2)CC1)c1ccc(NC(=O)c2cc(Cl)cc(Cl)c2)cc1 — 4.2-fold lower, 208 nM
- Cc1cccc2nc(-c3cccc(-c4cccc(NC(=O)c5cnn6cccnc56)c4)c3)[nH]c12 — within 1.5-fold, 671 nM
- COc1ccc2ncc(F)c(CCN3CC[C@H](NCc4cc(C#N)c5c(c4)OCCO5)[C@H](O)C3)c2c1 — within 1.5-fold, 885 nM
- COc1ccc(C2C(C(=O)Nc3cc(Cl)c(OC)cc3OC)c3ccccc3C(=O)N2C)cc1 (stereo not given) — within 1.5-fold, 820 nM
- CCCN(CCC)CCCNc1ccc(C(=O)Nc2ccc(C)c(F)c2)cc1[N+](=O)[O-] — 1.6-fold lower, 539 nM
- COc1ccc2cc(C(=O)NC3CCC(CCN4CCc5cc(C#N)ccc5C4)CC3)[nH]c2c1 (stereo not given) — within 1.5-fold, 1010 nM
- Cc1nc2nc(N)nc(N)c2c(C)c1Cc1ccc([N+](=O)[O-])cc1 — 2-fold lower, 438 nM
- COc1cc2nc(N(C)CC3COc4ccccc4O3)nc(N)c2cc1OC (stereo not given) — 1.8-fold higher, 1550 nM
- CN(CC(=O)Nc1ccc(F)c(F)c1F)c1ncnc2sc(-c3ccccc3)cc12 — within 1.5-fold, 874 nM
- Cc1cc(O)c2c3c1C(=O)C=C1C3c3c(c(O)cc(O)c3C(=O)C1(C)C)C2=O (stereo not given) — 1.9-fold higher, 1680 nM
- Cc1c(O)cccc1Nc1ccnc2ccc(C(F)(F)F)cc12 — 28-fold lower, 31.1 nM
- Cc1[nH]c(C)c(-c2ccc(Oc3ccc(Cl)cc3)cc2)c(=O)c1Br — within 1.5-fold, 592 nM
- CC(=O)c1sc2ccccc2c1O — within 1.5-fold, 880 nM
- CC(C)CNC(=O)c1cncc(-c2ccc(CNCCCc3ccccc3)cc2)c1 — within 1.5-fold, 770 nM
- OCC1CCCCN1Cc1cccc(-c2cccc(-c3nc4ccccc4[nH]3)c2)c1 (stereo not given) — within 1.5-fold, 779 nM
- CCCc1c(Cl)cc(CNCCCNc2nc3ccncc3[nH]2)cc1Cl — within 1.5-fold, 744 nM
- CC(C)Oc1cc2c(cc1NS(=O)(=O)c1ccc(-c3cccs3)cc1)CCN(C)CC2 — within 1.5-fold, 961 nM
- COc1ccc(C=CC(=O)N2CCC(CN3CCC(c4c[nH]c5ccccc45)CC3)CC2)cc1OC — within 1.5-fold, 1070 nM
- O=C(Nc1cccc(-c2nc3ccccc3[nH]2)c1)c1ccc(-c2cccc([N+](=O)[O-])c2)o1 — 5.8-fold lower, 151 nM
- CN(C)CCN(Cc1ccc(-c2ccc(CNCCc3ccccc3)cc2)nc1)C(=O)CCC1CCCC1 — within 1.5-fold, 799 nM
- c1ccc(CN2CCC(NCc3ccccc3-c3ccc(CNC4CCCC4)cc3)CC2)cc1 — within 1.5-fold, 912 nM
- Cc1cccc(OCCCCON2C(=N)N=C(N)NC2(C)C)c1C — 270-fold lower, 3.2 nM
- CC(C)(C)c1ccc(CN2CCCCC(NC(=O)c3cc(-c4cccc(F)c4)cs3)C2)cc1 (stereo not given) — within 1.5-fold, 783 nM
- CN1CCc2ccc(NC(=O)Nc3ccc(Cl)c(Cl)c3)cc2C1 — within 1.5-fold, 724 nM
- Cc1nn(CC(C)C)c2sc(C(=O)Nc3nc(-c4ccccn4)cs3)cc12 — within 1.5-fold, 961 nM
- CN1CCC(N2CCN(Cc3ccc(-c4ccc(-c5nc6cc(F)ccc6[nH]5)s4)cc3)CC2)CC1 — 5.7-fold lower, 153 nM
- Cc1ccccc1OCC(O)CN1CCC(C2CCN(CC(O)COc3ccccc3C)CC2)CC1 (stereo not given) — 2.9-fold lower, 307 nM
- CN1CCN(c2ccnc3ccc(NC(=O)Nc4ccc(-c5ccncc5)c(C(F)(F)F)c4)cc23)CC1 — within 1.5-fold, 823 nM
- CCN(CCCN1CCCCC1)c1cc(C)nc(Nc2ccc(C)c(Br)c2)n1 — 3.5-fold lower, 248 nM
- NCC1CCCN1Cc1ccc(-c2ccc(-c3nc4cc(C(F)(F)F)ccc4[nH]3)s2)cc1 (stereo not given) — within 1.5-fold, 794 nM
- O=C(c1ccc([N+](=O)[O-])o1)N1CCN(c2nc3c(Cl)cccc3s2)CC1 — within 1.5-fold, 980 nM
- Cc1cc(=O)[nH]c2cc(Nc3ccnc(Nc4cccc(C(N)=O)c4)n3)ccc12 — 1.7-fold higher, 1520 nM
- Cc1cc(=NN=Cc2ccccn2)c2cc(C(F)(F)F)ccc2[nH]1 — within 1.5-fold, 621 nM
- COc1cc(Cc2cnc(N)nc2N)c2c(c1OC)OC(C)C=C2 (stereo not given) — within 1.5-fold, 1250 nM
- COc1ccc(C2c3cc(OC)c(OC)cc3C(=NO)C2C)cc1OC (stereo not given) — within 1.5-fold, 1170 nM
- CN1CC=C(c2c[nH]c3ccc(OCc4ccccc4)cc23)CC1 — within 1.5-fold, 718 nM
- COc1ccc2c(c1C1CCN(CCCCNC(=O)c3ccc(-c4ccc(Cl)cn4)cc3)CC1)CCCC2 — within 1.5-fold, 1020 nM
- CC1(C)CCCN(c2ncc(-c3cccc(CNCc4ccccc4O)c3)cn2)C1 — within 1.5-fold, 886 nM
- COc1cc([N+](=O)[O-])ccc1NC(=O)Nc1ccc(OC(F)(F)F)cc1 — within 1.5-fold, 1030 nM
- CN(C)c1ccc(CN2CCC(CNC(=O)c3cc(-c4ccccc4Cl)cs3)C2)cc1 (stereo not given) — 1.6-fold higher, 1440 nM
- Cn1cnc(CCNC(=O)c2cccc(-c3csc(-c4nc5ccccc5[nH]4)c3)c2)c1 — within 1.5-fold, 599 nM
- Nc1nc(N)c2c(ccc3c2ccn3CC2CC2)n1 — 4.2-fold lower, 211 nM
- CCOc1ccc2c(=NN=Cc3cccc(F)c3)cc(C)[nH]c2c1 — within 1.5-fold, 714 nM
- FC(F)(F)c1cc(C(F)(F)F)c2cc(CNCCCNc3nc4ccccc4[nH]3)[nH]c2c1 — 6.2-fold lower, 141 nM
- CC(C)CN1C(=O)C(c2ccc(F)c(F)c2)=C(O)C1c1ccccc1 (stereo not given) — 4.7-fold lower, 185 nM
- OC1CCCN(Cc2ccc(-c3ccc(-c4nc5cc(F)ccc5[nH]4)cc3)cc2)C1 (stereo not given) — within 1.5-fold, 854 nM
- CCN(CC)CCCC(C)Nc1cc(C)nc2cc(Cl)ccc12 (stereo not given) — within 1.5-fold, 726 nM
- Cc1ccc(C)c(N2CCN(Cc3ccccc3O)CC2)c1 — within 1.5-fold, 940 nM
- COc1cccc2cc(C(=O)N[C@@H](CC(C)C)C(=O)N[C@H](/C=N/NC(=O)N3CCN(C)CC3)CCc3ccccc3)oc12 — within 1.5-fold, 616 nM
- CCOc1ccc2nc3cc([N+](=O)[O-])ccc3c(N)c2c1 — 6.3-fold lower, 139 nM
- CCCN(CCC)CCCCC(C)Nc1c2ccc(Cl)cc2nc2ccc(OC)cc12 (stereo not given) — 6.4-fold lower, 137 nM
- Cc1[nH]c2ccccc2c1C1=CCN(CCN2CCOc3c(Br)cccc3C2=O)CC1 — within 1.5-fold, 797 nM
- Cc1cccc2nc(-c3cccc(-c4ccc(NC(=O)C(C)CN(C)C)cc4)c3)[nH]c12 (stereo not given) — 3.9-fold lower, 222 nM
- Cc1nc(C)c(-c2ccc(Oc3ccc(OC(F)(F)F)cc3)cc2)c(OC(=O)c2ccccc2)c1Cl — 4.8-fold lower, 182 nM
- O=C(N[C@@H](Cc1ccccc1)C(=O)NC1CCCc2ccccc21)c1ccc(O)c(-c2cccc(C(F)(F)F)c2)c1 (stereo not given in full) — within 1.5-fold, 1000 nM
- Fc1cccc(COc2ccc(Nc3ncnc4ccc(C#C[C@H]5CCCN5)cc34)cc2Cl)c1 — within 1.5-fold, 882 nM
- CCOc1cc(C(=O)NCc2cccc(C(F)(F)F)c2)ccc1-c1nc2cc(Cl)ccc2[nH]1 — within 1.5-fold, 977 nM
- COc1ccccc1CNC(=O)CCn1c(=O)[nH]c2ccsc2c1=O — within 1.5-fold, 1040 nM
- Cc1cc(C)c(-c2n[nH]c3c2C(c2cccc(Cl)c2)N(Cc2ccco2)C3=O)c(O)c1 (stereo not given) — within 1.5-fold, 1010 nM
- O=C(NCc1ccc(C(=O)NCc2cccc3ccccc23)cc1)c1ccc(O)c(-c2ccc(Cl)c(Cl)c2)c1 — within 1.5-fold, 814 nM
- Cn1cncc1C(=O)NC1CCN(c2ccnc(Nc3ccc(F)cc3)n2)C1 (stereo not given) — within 1.5-fold, 832 nM
- CC(=O)Nc1ncc(C(=O)Nc2cccc(-c3ccc(-c4nc5cc(C(F)(F)F)ccc5[nH]4)cc3)c2)s1 — within 1.5-fold, 590 nM
- O=C(Nc1cccc(CN2CCCN(CC3CC3)CC2)c1)c1ccc(Cl)c(Cl)c1 — within 1.5-fold, 1030 nM
- N#Cc1ccc2c(c1)CCN(CCC1CCC(NC(=O)/C=C/c3nc4ccccc4s3)CC1)CC2 (stereo not given) — within 1.5-fold, 829 nM
- O=C(Nc1ccccc1)NC1CCN(CCC2(c3ccc(Cl)c(Cl)c3)COCN(C(=O)c3ccccc3)C2)C1 (stereo not given) — within 1.5-fold, 880 nM
- CC(C)C(C(=O)Nc1ccc2c(c1)OCO2)c1ccc(Cl)cc1 (stereo not given) — within 1.5-fold, 717 nM
- CCc1n[nH]c(C(=O)NC2CCN(CC3(c4ccc(OC)cc4)CCCCC3)CC2)c1C — within 1.5-fold, 892 nM
- Cc1[nH]c(C)c(-c2ccc(-c3ccccc3C(F)(F)F)nc2)c(=O)c1Br — 5.2-fold lower, 168 nM
- Cc1cc(Nc2ccc3c(c2)CCC3)n2ncnc2n1 — within 1.5-fold, 967 nM
- CN(Cc1ccccc1)C1CCN(c2cc(NC(=O)c3cccc(F)c3)ccn2)CC1 — 1.7-fold higher, 1510 nM
- Oc1c(C=Nn2cnnc2)sc2ccccc12 — within 1.5-fold, 911 nM
- O=C(NCc1cccs1)[C@H](Cc1ccccc1)Nc1ccnc(NCCc2ccc(F)cc2)n1 — 1.7-fold higher, 1450 nM
